The target of this assay is T1, α2-adrenoceptors (Rattus norvegicus, UniProt P22909).
T1 construct: isolated rat-brain synaptic membrane fragments; from tissue; host or cells: rat brain, synaptic membrane fragments
T1 sequence (P22909 1-465): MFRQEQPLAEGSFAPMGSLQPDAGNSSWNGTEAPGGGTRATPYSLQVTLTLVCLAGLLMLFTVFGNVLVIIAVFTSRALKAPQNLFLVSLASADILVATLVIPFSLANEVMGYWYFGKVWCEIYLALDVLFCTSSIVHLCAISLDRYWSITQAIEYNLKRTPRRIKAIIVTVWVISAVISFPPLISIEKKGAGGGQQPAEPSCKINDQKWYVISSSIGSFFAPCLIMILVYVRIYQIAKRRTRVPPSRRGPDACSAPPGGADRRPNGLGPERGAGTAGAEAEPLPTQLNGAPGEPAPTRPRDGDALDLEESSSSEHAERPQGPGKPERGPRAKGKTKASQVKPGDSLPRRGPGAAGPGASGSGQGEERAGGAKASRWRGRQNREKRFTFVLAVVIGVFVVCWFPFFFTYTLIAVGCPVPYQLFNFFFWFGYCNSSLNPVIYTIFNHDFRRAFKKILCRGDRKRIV
The assay can be described thus: inhibition of [3H]-clonidine binding to isolated rat-brain synaptic membrane fragments. Conditions: from IC50 by Cheng-Prusoff equation. The source says: Blockade of presynaptic α2 -adrenoceptors on noradrenergic neurones effects an increase in intrasynaptic noradrenaline, and thus in the central nervous system could be expected to have an antidepressant effect. [^3 H]-Clonidine binds to α2 -adrenoceptor sites and inhibition of this binding correlates with the blockade of α2 -adrenoceptors. In vitro inhibition by some of the present compounds of the binding of [^3 H]-clonidine to isolated rat-brain synaptic membrane fragments was therefore determined to provide an indication of antidepressant activity. This was carried out using standard biochemical binding study techniques, by the method of Maggi et al, Eur. J. Pham. 1980, 61, 91. IC50 values were obtained from log [dose] against % inhibition curves; Ki values were determined using the Cheng-Prusoff equation.

The Ki is a dissociation constant, usually derived from enzyme kinetics or from competition with a known ligand. A high value points to weaker binding.

Take `CN1CCN2c3ccccc3Cc3cccc4c3[C@@H]2[C@H]1C4` (relative stereo) [Example I, trans-12-Methyl-1,10,11,12,12a,12b-hexahydro-5H-9b,12-diazabenzo[5,6]cyclohepta[1,2,3,4-def]fluorene]: the affinity corresponds to a Ki of 0.088 µM. The value for `CN1CCN2c3ccccc3Cc3cccc4c3[C@@H]2[C@H]1CC4` (relative stereo) [Example II, trans-13-methyl-1,2,6,11,12,13,13a,13b-octahydro-10b13-diazabenzo[gh]pleiadene] was 0.169 µM.

(Values after patent US4504480A, “Pentacyclic compounds” (Beecham Group p.l.c., priority 1982, dated 1985).)
